Drawing on patent US11008317B2, “Triazolopyridine inhibitors of myeloperoxidase and/or EPX” (priority 2016, dated 2021), this text covers IC50 for 27 compounds.

pIC50: −log10 of the molar value.

For assay [1], the target named is T1, myeloperoxidase (Homo sapiens, UniProt P05164).
T1 sequence (P05164 49-745): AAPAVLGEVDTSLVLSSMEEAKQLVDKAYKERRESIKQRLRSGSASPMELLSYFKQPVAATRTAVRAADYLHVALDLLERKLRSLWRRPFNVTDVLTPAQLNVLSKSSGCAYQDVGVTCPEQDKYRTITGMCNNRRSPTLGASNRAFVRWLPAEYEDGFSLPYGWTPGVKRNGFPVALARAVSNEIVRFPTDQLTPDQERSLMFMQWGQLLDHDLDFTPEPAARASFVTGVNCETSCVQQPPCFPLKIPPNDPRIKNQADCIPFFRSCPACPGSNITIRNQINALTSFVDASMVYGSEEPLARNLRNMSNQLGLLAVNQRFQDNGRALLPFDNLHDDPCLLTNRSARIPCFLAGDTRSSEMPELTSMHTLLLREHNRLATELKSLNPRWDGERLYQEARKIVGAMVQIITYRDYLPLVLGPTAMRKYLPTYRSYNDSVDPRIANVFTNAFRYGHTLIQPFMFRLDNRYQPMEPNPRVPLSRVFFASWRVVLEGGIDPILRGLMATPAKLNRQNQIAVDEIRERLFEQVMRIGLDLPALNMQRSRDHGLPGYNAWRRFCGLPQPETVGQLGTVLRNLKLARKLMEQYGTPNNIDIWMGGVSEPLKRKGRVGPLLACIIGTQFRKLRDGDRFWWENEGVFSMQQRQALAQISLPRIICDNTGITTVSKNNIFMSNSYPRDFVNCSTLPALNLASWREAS
As to the kind of experiment: MPO Peroxidation Assay (Amplex Red Assay). It counts as biochemical. To be noted: potency range class, read-out: Amplex Red Assay IC50 value.

For assay [2], the target named is T1, myeloperoxidase. In words: MPO Chlorination Assay (APF Assay). It is filed as biochemical. To be noted: potency range class, read-out: APF Assay IC50 value.

One may read the pIC50 as the negative decadic logarithm of the IC50, by convention in mol/L. For the compound `Nc1cc(C(CCNC(=O)c2ccccc2)c2ccccc2)c2nn[nH]c2n1` (stereo not drawn) [Example 39, N-(3-(5-amino-3H-[1,2,3]triazolo[4,5-b]pyridin-7-yl)-3-phenylpropyl)benzamide], the pIC50 on myeloperoxidase [1] was 6.00 to 7.00; on myeloperoxidase [2], 5.00 to 6.00.
In the case of `Nc1cc(C(CCNC2Cc3ccccc3C2)c2ccccc2)c2nn[nH]c2n1` (stereo not drawn) [Example 41, 7-{3-[(2,3-dihydro-1H-inden-2-yl)amino]-1-phenylpropyl}-3H-[1,2,3]triazolo[4,5-b]pyridin-5-amine], the pIC50 on myeloperoxidase [1] and at myeloperoxidase [2] was 6.00 to 7.00 in each case.
Regarding `Nc1cc(C(CCNC(Cc2ccccc2)c2ccccc2)c2ccccc2)c2nn[nH]c2n1` (stereo not drawn) [Example 45, 7-{3-[(1,2-diphenylethyl)amino]-1-phenylpropyl}-3H-[1,2,3]triazolo[4,5-b] pyridin-5-amine], the pIC50 at myeloperoxidase [1] and at myeloperoxidase [2] was 6.00 to 7.00 throughout.
On to `Nc1cc(C(CCNC2c3ccccc3CC2c2ccccc2)c2ccccc2)c2nn[nH]c2n1` (stereo not drawn) [Example 46, 7-{1-phenyl-3-[(2-phenyl-2,3-dihydro-1H-inden-1-yl)amino]propyl}-3H-[1,2,3]triazolo [4,5-b]pyridin-5-amine], for which the pIC50 on myeloperoxidase [1] and on myeloperoxidase [2] was 6.00 to 7.00 throughout.
As for `Nc1cc(C(CCNC(Cc2ccccc2)c2ccccc2)c2ccccc2)c2nn[nH]c2n1` (stereo not drawn) [Example 47, 7-{3-[(1,2-diphenylethyl)amino]-1-phenylpropyl}-3H-[1,2,3]triazolo[4,5-b]pyridin-5-amine], the pIC50 was 5.00 to 6.00 on myeloperoxidase [1] and 6.00 to 7.00 on myeloperoxidase [2].
In the case of `Nc1cc(C(CCNC(Cc2ccccc2)c2ccccc2)c2ccccc2)c2nn[nH]c2n1` (stereo not drawn) [Example 48, 7-{3-[(1,2-diphenylethyl)amino]-1-phenylpropyl}-3H-[1,2,3]triazolo[4,5-b]pyridin-5-amine], the pIC50 at myeloperoxidase [1] is 6.00 to 7.00; at myeloperoxidase [2], 7.00 to 9.00.
For `Nc1cc(C(CCNCc2cccc(C(F)(F)F)c2)c2ccccc2)c2nn[nH]c2n1` (stereo not drawn) [Example 53, 7-[1-phenyl-3-({[3-(trifluoromethyl)phenyl]methyl}amino)propyl]-3H-[1,2,3]triazolo[4,5-b]pyridin-5-amine], the pIC50 at myeloperoxidase [1] and on myeloperoxidase [2] was 6.00 to 7.00 each time.
As to `Nc1cc(C(CCNCc2ccc(C(F)(F)F)cc2)c2ccccc2)c2nn[nH]c2n1` (stereo not drawn) [Example 54, 7-[1-phenyl-3-({[4-(trifluoromethyl)phenyl]methyl}amino)propyl]-3H-[1,2,3]triazolo[4,5-b]pyridin-5-amine], the pIC50 on myeloperoxidase [1] and on myeloperoxidase [2] was 6.00 to 7.00 each time.
With `Nc1cc(C(CCNC2c3ccccc3CC2c2ccccc2)c2ccccc2)c2nn[nH]c2n1` (stereo not drawn) [Example 55, 7-{1-phenyl-3-[(2-phenyl-2,3-dihydro-1H-inden-1-yl)amino]propyl}-3H-[1,2,3] triazolo[4,5-b] pyridin-5-amine], the negative logarithm of the IC50 (pIC50) at myeloperoxidase [1] is 5.00 to 6.00; on myeloperoxidase [2], 6.00 to 7.00.
The corresponding values for `Nc1cc(C(CCNC2c3ccccc3CC2c2ccccc2)c2ccccc2)c2nn[nH]c2n1` (stereo not drawn) [Example 56, 7-{1-phenyl-3-[(2-phenyl-2,3-dihydro-1H-inden-1-yl)amino]propyl}-3H-[1,2,3]triazolo[4,5-b] pyridin-5-amine] are 6.00 to 7.00 and 7.00 to 9.00.
Turning to `Nc1cc(C(CCN[C@H]2CCc3ccc(F)cc32)c2ccccc2)c2nn[nH]c2n1` (stereo partly drawn) [Example 57, 7-(3-{[(1S)-6-fluoro-2,3-dihydro-1H-inden-1-yl]amino}-1-phenylpropyl)-3H-[1,2,3]triazolo[4,5-b]pyridin-5-amine], the pIC50 on myeloperoxidase [1] was 6.00 to 7.00; on myeloperoxidase [2], 7.00 to 9.00.
The corresponding values for `Nc1cc(C(CCN[C@H]2CCc3cc(F)ccc32)c2ccccc2)c2nn[nH]c2n1` (stereo partly drawn) [Example 58, 7-(3-{[(1S)-5-fluoro-2,3-dihydro-1H-inden-1-yl]amino}-1-phenylpropyl)-3H-[1,2,3]triazolo[4,5-b]pyridin-5-amine] are 6.00 to 7.00 and 7.00 to 9.00.
The corresponding values for `COC(=O)c1cccc(CNCCC(c2ccccc2)c2cc(N)nc3[nH]nnc23)c1` (stereo not drawn) [Example 59, methyl 3-{[(3-{5-amino-3H-[1,2,3]triazolo [4,5-b]pyridin-7-yl}-3-phenylpropyl)amino]methyl} benzoate] are 6.00 to 7.00 and 6.00 to 7.00.
The corresponding values for `Nc1cc(C(CCN[C@@H]2CCc3ccc(F)cc32)c2ccccc2)c2nn[nH]c2n1` (stereo partly drawn) [Example 60, 7-(3-{[(1R)-6-fluoro-2,3-dihydro-1H-inden-1-yl]amino}-1-phenylpropyl)-3H-[1,2,3]triazolo[4,5-b]pyridin-5-amine] are 6.00 to 7.00 and 7.00 to 9.00.
On to `Nc1cc(C(CCN[C@@H]2CCc3cc(F)ccc32)c2ccccc2)c2nn[nH]c2n1` (stereo partly drawn) [Example 61, 7-(3-{[(1R)-5-fluoro-2,3-dihydro-1H-inden-1-yl]amino}-1-phenylpropyl)-3H-[1,2,3]triazolo[4,5-b]pyridin-5-amine], for which the pIC50 on myeloperoxidase [1] and on myeloperoxidase [2] was 6.00 to 7.00 in each case.
Turning to `Nc1cc(C(CCNCc2ccnc(C(F)(F)F)c2)c2ccccc2)c2nn[nH]c2n1` (stereo not drawn) [Example 62, 7-[1-phenyl-3-({[2-(trifluoromethyl)pyridin-4-yl]methyl}amino)propyl]-3H-[1,2,3]triazolo[4,5-b]pyridin-5-amine], the pIC50 on myeloperoxidase [1] and at myeloperoxidase [2] was 6.00 to 7.00 throughout.
For `Nc1cc(C(CCNCc2ccccc2Cc2ccccc2)c2ccccc2)c2nn[nH]c2n1` (stereo not drawn) [Example 63, 7-(3-{[(2-benzylphenyl)methyl]amino}-1-phenylpropyl)-3H-[1,2,3]triazolo[4,5-b]pyridin-5-amine], the results for the pIC50 at myeloperoxidase [1] and at myeloperoxidase [2] were 6.00 to 7.00 and 7.00 to 9.00, respectively.
The corresponding values for `Nc1cc(C(CCN[C@@H]2CCc3c(Cl)cccc32)c2ccccc2)c2nn[nH]c2n1` (stereo partly drawn) [Example 65, 7-(3-{[(1R)-4-chloro-2,3-dihydro-1H-inden-1-yl]amino}-1-phenylpropyl)-3H-[1,2,3]triazolo[4,5-b]pyridin-5-amine] are 6.00 to 7.00 and 6.00 to 7.00.
The corresponding values for `NC(=O)c1cccc(CNCCC(c2ccccc2)c2cc(N)nc3[nH]nnc23)c1` (stereo not drawn) [Example 70, 3-{[(3-{5-amino-3H-[1,2,3]triazolo[4,5-b]pyridin-7-yl}-3-phenylpropyl)amino]methyl}hbenzamide] are 6.00 to 7.00 and 6.00 to 7.00.
Consider `CN(C)C(=O)c1cccc(CNCCC(c2ccccc2)c2cc(N)nc3[nH]nnc23)c1` (stereo not drawn) [Example 72, 3-{[(3-{5-amino-3H-[1,2,3]triazolo[4,5-b]pyridin-7-yl}-3-phenylpropyl)amino]methyl}-N,N-dimethylbenzamide], for which the pIC50 at myeloperoxidase [1] and on myeloperoxidase [2] was 6.00 to 7.00 in each case.
As to `Nc1cc(C(CCN[C@H]2CCc3c(Cl)cccc32)c2ccccc2)c2nn[nH]c2n1` (stereo partly drawn) [Example 73, 7-(3-{[(1S)-4-chloro-2,3-dihydro-1H-inden-1-yl]amino}-1-phenylpropyl)-3H-[1,2,3]triazolo [4,5-b]pyridin-5-amine], the figures for the negative logarithm of the IC50 (pIC50) at myeloperoxidase [1] and on myeloperoxidase [2] were 5.00 to 6.00 and 7.00 to 9.00, respectively.
Regarding `Nc1cc(C(CCNCc2ccccc2Oc2ccccc2)c2ccccc2)c2nn[nH]c2n1` (stereo not drawn) [Example 74, 7-(3-{[(2-phenoxyphenyl)methyl]amino}-1-phenylpropyl)-3H-[1,2,3]triazolo[4,5-b]pyridin-5-amine], the pIC50 on myeloperoxidase [1] was 6.00 to 7.00; at myeloperoxidase [2], 7.00 to 9.00.
The corresponding values for `Nc1cc(C(CCN[C@H]2C[C@@H](c3ccccc3)C2)c2ccccc2)c2nn[nH]c2n1` (stereo partly drawn) [Example 76, 7-(1-phenyl-3-{[(1s,3s)-3-phenylcyclobutyl]amino}propyl)-3H-[1,2,3]triazolo[4,5-b]pyridin-5-amine] are 6.00 to 7.00 and 7.00 to 9.00.
`Nc1cc(C(CCNCc2ccccc2Cc2ccc3c(c2)CCCC3)c2ccccc2)c2nn[nH]c2n1` (stereo not drawn) [Example 78, 7-{1-phenyl-3-[({2-[(5,6,7,8-tetrahydronaphthalen-2-yl)methyl]phenyl}methyl)amino]propyl}-3H-[1,2,3] triazolo[4,5-b] pyridin-5-amine]: the pIC50 on myeloperoxidase [1] was 6.00 to 7.00; at myeloperoxidase [2], 7.00 to 9.00.
For `Nc1cc(C(CCN[C@H]2C[C@H](c3ccccc3)Cc3ccccc32)c2ccccc2)c2nn[nH]c2n1` (stereo partly drawn) [Example 82, 7-(1-phenyl-3-{[(1S,3R)-3-phenyl-1,2,3,4-tetrahydronaphthalen-1-yl]amino}propyl)-3H-[1,2,3]triazolo [4,5-b]pyridin-5-amine], in that order: 5.00 to 6.00 and 7.00 to 9.00.
As for `Nc1cc(C(CCN[C@@H]2C[C@H](c3ccccc3)Cc3ccccc32)c2ccccc2)c2nn[nH]c2n1` (stereo partly drawn) [Example 83, 7-(1-phenyl-3-{[(1R,3R)-3-phenyl-1,2,3,4-tetrahydronaphthalen-1-yl]amino}propyl)-3H-[1,2,3]triazolo [4,5-b]pyridin-5-amine], the pIC50 on myeloperoxidase [1] is 5.00 to 6.00; at myeloperoxidase [2], 7.00 to 9.00.
For `Nc1cc(C(CCN[C@@H]2C[C@@H](c3ccccc3)Cc3ccccc32)c2ccccc2)c2nn[nH]c2n1` (stereo partly drawn) [Example 84, 7-(1-phenyl-3-{[(1R,3S)-3-phenyl-1,2,3,4-tetrahydronaphthalen-1-yl]amino}propyl)-3H-[1,2,3]triazolo [4,5-b]pyridin-5-amine], in that order: 5.00 to 6.00 and 6.00 to 7.00.
